{
  "source": "patent US10703770B2",
  "about": "“Compositions and methods for the dissolution and depolymerization of lignin” (National Technology & Engineering Solutions of Sandia, LLC, priority 2016, dated 2020)",
  "key": {"[1]": {"assay": "Solubilization of alkali lignin in solvents", "conditions": "20 °C (room temperature), solvent 5 g", "from_the_text": "Alkali lignin (average molecular weight of lignin obtained from Sigma-Aldrich reported as 60.0 kDa) with low sulfonate content was used as a technical lignin substrate for the rapid solubilization experiments.\nConfocal microscopy (10× magnification) was used to observe the morphologies of lignin before and after solubilization and precipitation, and the results are shown in FIGS. 8D-8F."}, "[2]": {"conditions": "reported (refs 24, 25); cited from earlier work"}, "[3]": {"tested_on": "Saccharomyces cerevisiae strain BY4741", "assay": "Toxicity test of [EOA][OAc] on yeast growth", "assay_type": "cell-based", "method": "FIG. 5A. Toxicity test of [EOA][OAc]. Conditions: yeast strain: Saccharomyces cerevisiae strain BY4741, growth condition: in 24-well microplate with orbital-high intensity shaking/31° C./in IL solution (10 g/L glucose in each IL solutions), volume of the cell culture was 0.5 mL.\nFor toxicity screening, a wild type yeast strain BY4741 was technically used and it was immersed in various IL concentrations from 2.5 to 15 wt %."}, "CTec2+HTec2 (9:1, v/v)": {"tested_on": "CTec2+HTec2 (9:1, v/v)", "assay": "Tolerance of commercial enzyme cocktails to IL in saccharification", "assay_type": "biochemical", "method": "FIG. 4C. Effects of some parameters on the sugar yield: IL concentration in hydrolysis. Normal operation conditions: pretreatment, 10 wt % SG loading, 90 wt % IL, 160° C., 0.5 h (3 h for eucalyptus); saccharification, 10 wt % IL, 20 mg protein/g SG, 50 ° C., 72 h.\nAs a result, the associated IL recycling and wastewater treatment costs create significant economic and process engineering challenges for the commercial scale-up of this technology. In the present process, commercial cocktails of CTec2+HTec2 (9:1, v/v) could tolerant about 10 wt % IL in saccharification process (FIG. 4C). […] [OAc] is tolerant to commercial cocktails not only in pH match, but also in its low toxic nature.\nGenerally, SSF requires compatible fermentation and saccharification conditions, with a similar pH, temperature and optimum substrate concentration. In a case of IL participating SSF, a compromise IL concentration for the two stages is an accessional requirement. […] [OAc] concentration of 10 wt %, however, increasing the [EOA] […] Thus, it would be interesting to see the performance of the wild yeast under different IL concentrations.\nOne-pot pretreatment, saccharification and fermentation: In a typical procedure, SG (100 mg) was mixed with ([EOA][OAc]) at a 10% biomass loading in a 15 mL capped glass pressure tube and pretreated in a convection oven at 160° C. for 0.5 h. […]"}, "[4]": {"conditions": "25° C.; cited from earlier work"}},
  "note": "Several values for one entry are separate records, joined by “and”; a condition that tells them apart may be missing. Equal entries are not always repeated. Entries after “also recorded” stand apart in the source; their conditions may differ.",
  "data": [
    {"smiles": "CC1COC(=O)O1", "note": "(stereo not drawn) [PC, propylene carbonate, reference compound]", "values": [
      {"measurement": "Solubility (wt %) of alkali lignin", "setting": "[1]", "result": "Negligible solubility; also recorded: Trace"}
    ]},
    {"smiles": "CC(=O)O.NCCO", "note": "[[EOA][OAc], ethanolamine acetate]", "values": [
      {"measurement": "thermal decomposition temperature, Td", "setting": "[2]", "result": "above 200 °C"},
      {"measurement": "yeast growth", "setting": "[3]; 5 wt % IL concentration", "result": "better yeast growth"},
      {"measurement": "yeast strain growth", "setting": "[3]; IL concentrations from 2.5 to 15 wt %, 31 °C, 10 g/L glucose", "result": "better growth occurs in a lower IL titer below 10 wt %"},
      {"measurement": "IL concentration tolerated by commercial cocktails in saccharification", "setting": "CTec2+HTec2 (9:1, v/v); CTec2+HTec2 (9:1, v/v), 50 °C, 72 h", "result": "about 10 wt %"},
      {"measurement": "glucose yield at raised IL concentration in saccharification", "setting": "CTec2+HTec2 (9:1, v/v); [EOA][OAc] concentration over 10 wt %", "result": "decreased glucose yield"}
    ]},
    {"smiles": "OCCO", "note": "[EG, ethylene glycol]", "values": [
      {"measurement": "viscosity", "setting": "[4]", "result": 0.0162, "unit": "N s/m^2"},
      {"measurement": "Solubility (wt %) of alkali lignin", "setting": "[1]", "result": "> 30 wt % and ~31 wt %"}
    ]},
    {"smiles": "OCC(O)CO", "note": "[Glycerol]", "values": [
      {"measurement": "viscosity", "setting": "[4]", "result": 0.95, "unit": "N s/m^2"}
    ]}
  ]
}
